Calls of active or inactive are those of the source.
Experiments:
Cytochrome P450 2D6 = Cytochrome P450 2D6 (Homo sapiens, UniProt P10635);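 note: CYP2D6 member of a cytochrome P450 panel assay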
[1] = target: 1-phosphatidylinositol 4,5-bisphosphate phosphodiesterase beta-3 (Homo sapiens, UniProt Q01970); assay: Fluorescence-based biochemical high throughput dose response assay to identify inhibitors of phospholipase C isozymes (PLC-B3).
Cytochrome P450 2C9 = Cytochrome P450 2C9 (Homo sapiens, UniProt P11712)
Cytochrome P450 2C19 = Cytochrome P450 2C19 (Homo sapiens, UniProt P33261); assay: Cytochrome panel assay with activity outcomes. Panel member name: p450-cyp2c19 Compounds with AC50 equal or less than 10 uM are considered active; type: functional; conditions: read-out: AC50
[2] = target: 1-phosphatidylinositol 4,5-bisphosphate phosphodiesterase gamma-1 (Homo sapiens, UniProt P19174); assay: Counterscreen for inhibitors of phospholipase C isozymes (PLC-B3): Fluorescence-based biochemical high throughput dose response assay to identify inhibitors of phospholipase C isozymes (PLC-gamma1).
[3] = target: Glutathione-S-transferase (Schistosoma japonicum, UniProt Q26513); assay: biotin-GST/anti-GST TR-FRET signal inhibitors, dose response, artefact control for Vif-APOBEC3G degradation inhibitor project, biochemical (AID 1117362); type: functional
[4] = Vero cell cytotoxicity, dose response, cytotoxicity control for Vif-APOBEC3G degradation inhibitor project, Vero cells (AID 1117358); type: functional; conditions: Human immunodeficiency virus 1, Vero
Protein Tat = Protein Tat (Human immunodeficiency virus type 1 group M subtype B (isolate HXB2)(HIV-1), UniProt P04608); type: functional;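 note: tat binding to TAR RNA read out by fluorescence polarization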
cells [5] = assay: cells
[6] = target: T1, Oxysterols receptor LXR-beta (Homo sapiens, UniProt P55055); type: functional, cell-based;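 note: Cell-based luminescence dose-response assay of agonist activity at LXR, run as a confirmatory counterscreen to a daf-12 agonist screen; HEK293 cells with Gal4-LXR fusion and GAL4-driven luciferase reporter; agonist potency from rising luciferase signal of a Gal4-LXR reporter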
T1 sequence (P55055 whole entry): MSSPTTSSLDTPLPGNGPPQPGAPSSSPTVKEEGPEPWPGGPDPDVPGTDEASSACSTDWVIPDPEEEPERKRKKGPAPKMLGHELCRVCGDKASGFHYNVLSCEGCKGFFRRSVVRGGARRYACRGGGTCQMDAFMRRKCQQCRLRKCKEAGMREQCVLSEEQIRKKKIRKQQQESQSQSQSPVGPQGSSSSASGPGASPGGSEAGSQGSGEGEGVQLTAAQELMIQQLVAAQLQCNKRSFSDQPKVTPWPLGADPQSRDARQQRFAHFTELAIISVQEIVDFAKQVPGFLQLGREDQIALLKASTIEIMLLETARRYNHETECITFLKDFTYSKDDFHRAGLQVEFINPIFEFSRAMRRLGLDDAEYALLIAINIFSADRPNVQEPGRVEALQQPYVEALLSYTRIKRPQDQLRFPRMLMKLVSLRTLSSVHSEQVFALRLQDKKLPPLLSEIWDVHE

[7] = cytotoxicity in HEK-293T cells, dose response, cytotoxicity control for TCR NF-kB inhibitor project, luminescence, T-cell screen hits (AID 489026); type: functional, cell-based;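 note: cells exposed to compound about 14 hours before the viability readout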
[8] = A549 cell cytotoxicity, dose response, cytotoxicity control, plate reader, cherry-pick, antagonist series (AID 743412); type: functional, cell-based
Paired box protein Pax-8 = Paired box protein Pax-8 (Homo sapiens, UniProt Q06710); assay: inhibitors of PAX8-driven TPO luciferase reporter, dose response, RMG-I cells, cherry-pick (AID 687027); type: functional, cell-based;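 note: luciferase reporter driven by Pax8 target thyroperoxidase promoter measured by SteadyGlo luminescence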
[9] = LGR2 antagonists, dose response, cell-based, HEK293, CRE-luciferase reporter, cherry pick, set 2 (AID 743343); type: functional;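 note: transfected cells were stimulated with diluted bursicon conditioned medium after compound addition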
[10] = HEK293 cell cytotoxicity, dose response, cytotoxicity control, plate reader, cherry-picked samples (AID 743446); type: functional, cell-based
[11] = non-specific cell cytotoxicity, dose response, cytotoxicity control for PAX8 inhibitor project, plate reader, dry powder samples (AID 743021); type: functional, cell-based
[12] = HepG2 cell cytotoxicity, dose response, cytotoxicity control, plate reader, cherry-pick, antagonist series (AID 743416); type: functional, cell-based
[13] = MC4R antagonists, dose response, counter-screen for LGR2 antagonist project, cell-based, plate reader, cherry pick (AID 743444); type: functional;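 note: transfected HEK 293 cells stimulated with alpha-MSH peptide; potency of inhibitors of the alpha-MSH evoked signal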
[14] = Artemis endonuclease inhibitor potency, dose response, biochemical, fluorescence intensity (AID 720701); type: functional;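 note: Artemis endonuclease enzyme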
[15] = THP-1 cell cytotoxicity, dose response, cytotoxicity control for non-replicating M. tuberculosis project (AID 489025); type: functional
[16] = Vero E6 cell cytotoxicity, dose response, cytotoxicity control for non-replicating M. tuberculosis project, secondary assay (AID 492998); type: functional, VeroE6; conditions: Vero C1008
cells [17] = type: functional
Streptokinase A = target: T2, Streptokinase A (Streptococcus pyogenes serotype M1, UniProt P10520); assay: S. pyogenes streptokinase expression inhibitors, potency, dose response, plasminogen activation absorbance, OD405 (AID 1914); type: functional, Streptococcus pyogenes M1 GAS;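 note: secreted streptokinase activity via plasminogen activation per viability signal from cell pellet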
T2 sequence (P10520 whole entry): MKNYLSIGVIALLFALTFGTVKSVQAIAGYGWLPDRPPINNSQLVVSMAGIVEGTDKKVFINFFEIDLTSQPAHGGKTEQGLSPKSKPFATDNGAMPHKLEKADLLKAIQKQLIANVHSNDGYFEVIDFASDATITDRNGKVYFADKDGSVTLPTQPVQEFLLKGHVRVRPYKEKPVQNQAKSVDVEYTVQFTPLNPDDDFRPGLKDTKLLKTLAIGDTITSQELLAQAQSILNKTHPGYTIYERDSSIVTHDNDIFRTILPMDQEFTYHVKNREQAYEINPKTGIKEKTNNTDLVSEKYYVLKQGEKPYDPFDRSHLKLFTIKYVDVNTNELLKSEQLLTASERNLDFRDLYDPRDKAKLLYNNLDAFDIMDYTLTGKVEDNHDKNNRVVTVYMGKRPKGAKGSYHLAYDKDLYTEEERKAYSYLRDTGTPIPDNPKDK

[18] = tested on: Streptococcus sp. 'group A'; assay: growth inhibition of control SK(-) GAS strain, dose response, counter-screen for streptokinase expression inhibitor project, luminescence, kanamycin, BacTiterGlo, confirmation (AID 1900); type: functional, organism-based
INS1 = assay: beta cell apoptosis inhibitors, cytokine rescue, dose response, luminescence, retest (AID 449756); type: functional, cell-based; conditions: Rattus norvegicus;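 note: cell death triggered by IL-1 beta plus TNF-alpha plus IFN-gamma mixture; protective hits raise ATP signal compared with cytokine alone wells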
Streptococcus = assay: Group A Streptococcus viability loss, dose response, counter-screen for streptokinase expression inhibitor project, luminescence, BacTiterGlo (AID 1915); type: functional, organism-based;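 note: potency for reduction of bacterial viability or growth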

Chain of 1-phosphatidylinositol 4,5-bisphosphate phosphodiesterase beta-3 (Q01970 whole entry): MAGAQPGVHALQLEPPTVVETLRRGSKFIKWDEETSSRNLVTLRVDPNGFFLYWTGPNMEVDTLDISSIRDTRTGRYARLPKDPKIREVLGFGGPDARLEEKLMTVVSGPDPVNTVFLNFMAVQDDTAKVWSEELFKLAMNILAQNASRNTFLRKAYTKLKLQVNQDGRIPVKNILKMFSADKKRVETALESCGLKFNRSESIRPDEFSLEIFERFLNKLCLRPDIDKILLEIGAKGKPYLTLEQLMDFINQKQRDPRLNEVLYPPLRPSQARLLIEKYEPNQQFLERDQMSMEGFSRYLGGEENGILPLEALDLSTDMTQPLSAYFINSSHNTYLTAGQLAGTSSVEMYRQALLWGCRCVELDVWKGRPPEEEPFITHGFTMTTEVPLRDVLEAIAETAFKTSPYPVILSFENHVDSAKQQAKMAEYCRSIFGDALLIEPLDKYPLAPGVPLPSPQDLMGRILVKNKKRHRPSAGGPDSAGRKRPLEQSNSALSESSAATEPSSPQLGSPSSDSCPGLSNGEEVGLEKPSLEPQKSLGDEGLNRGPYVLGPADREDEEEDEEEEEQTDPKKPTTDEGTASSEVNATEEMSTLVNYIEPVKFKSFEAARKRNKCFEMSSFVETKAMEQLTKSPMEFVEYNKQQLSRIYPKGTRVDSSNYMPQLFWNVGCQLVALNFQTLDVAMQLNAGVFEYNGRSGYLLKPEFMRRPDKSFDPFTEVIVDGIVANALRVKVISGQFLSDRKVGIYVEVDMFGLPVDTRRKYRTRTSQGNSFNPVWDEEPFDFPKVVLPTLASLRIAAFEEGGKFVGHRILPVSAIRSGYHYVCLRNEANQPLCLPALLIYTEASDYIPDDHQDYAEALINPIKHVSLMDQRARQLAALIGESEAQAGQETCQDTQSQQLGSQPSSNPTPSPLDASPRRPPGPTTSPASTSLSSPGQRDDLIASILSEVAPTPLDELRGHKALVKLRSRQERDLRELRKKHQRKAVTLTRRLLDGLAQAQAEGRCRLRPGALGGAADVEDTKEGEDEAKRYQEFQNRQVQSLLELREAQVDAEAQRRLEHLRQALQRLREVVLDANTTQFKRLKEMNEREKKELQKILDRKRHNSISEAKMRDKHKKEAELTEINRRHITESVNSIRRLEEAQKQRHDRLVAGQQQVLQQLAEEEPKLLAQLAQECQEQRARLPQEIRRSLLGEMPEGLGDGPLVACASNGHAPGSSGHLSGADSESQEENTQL
Chain of 1-phosphatidylinositol 4,5-bisphosphate phosphodiesterase gamma-1 (P19174 whole entry): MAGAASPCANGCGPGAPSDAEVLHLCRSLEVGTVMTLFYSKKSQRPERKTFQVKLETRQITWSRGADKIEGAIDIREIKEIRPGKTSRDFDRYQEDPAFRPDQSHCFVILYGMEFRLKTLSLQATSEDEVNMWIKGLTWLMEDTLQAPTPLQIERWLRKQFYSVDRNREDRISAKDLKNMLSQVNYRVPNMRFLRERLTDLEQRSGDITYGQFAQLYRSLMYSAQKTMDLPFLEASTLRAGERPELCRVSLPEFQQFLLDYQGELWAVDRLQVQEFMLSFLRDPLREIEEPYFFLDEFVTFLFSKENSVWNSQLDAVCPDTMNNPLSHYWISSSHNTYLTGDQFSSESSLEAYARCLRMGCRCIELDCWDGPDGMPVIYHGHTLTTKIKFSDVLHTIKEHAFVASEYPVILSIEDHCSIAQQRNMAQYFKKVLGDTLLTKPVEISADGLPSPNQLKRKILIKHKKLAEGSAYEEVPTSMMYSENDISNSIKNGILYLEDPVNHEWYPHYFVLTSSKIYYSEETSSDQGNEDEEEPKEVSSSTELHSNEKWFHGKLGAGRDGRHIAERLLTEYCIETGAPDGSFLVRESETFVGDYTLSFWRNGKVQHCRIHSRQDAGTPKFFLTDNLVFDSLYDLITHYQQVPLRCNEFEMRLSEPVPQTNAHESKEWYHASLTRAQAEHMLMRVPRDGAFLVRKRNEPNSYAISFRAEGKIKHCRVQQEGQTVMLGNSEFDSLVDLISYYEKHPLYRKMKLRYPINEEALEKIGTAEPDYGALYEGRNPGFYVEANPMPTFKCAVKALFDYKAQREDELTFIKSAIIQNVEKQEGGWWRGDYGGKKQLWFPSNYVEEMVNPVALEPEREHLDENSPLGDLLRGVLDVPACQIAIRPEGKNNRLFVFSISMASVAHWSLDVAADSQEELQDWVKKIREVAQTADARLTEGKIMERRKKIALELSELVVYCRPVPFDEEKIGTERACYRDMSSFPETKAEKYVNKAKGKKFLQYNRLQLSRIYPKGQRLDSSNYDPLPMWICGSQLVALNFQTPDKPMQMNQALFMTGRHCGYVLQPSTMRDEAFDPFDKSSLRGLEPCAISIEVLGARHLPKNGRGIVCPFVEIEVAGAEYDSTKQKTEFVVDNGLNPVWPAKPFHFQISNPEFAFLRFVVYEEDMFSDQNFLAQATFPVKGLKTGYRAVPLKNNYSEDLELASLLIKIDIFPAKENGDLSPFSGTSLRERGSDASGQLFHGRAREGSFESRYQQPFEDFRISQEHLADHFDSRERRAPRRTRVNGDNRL
Chain of Cytochrome P450 2D6 (P10635 whole entry): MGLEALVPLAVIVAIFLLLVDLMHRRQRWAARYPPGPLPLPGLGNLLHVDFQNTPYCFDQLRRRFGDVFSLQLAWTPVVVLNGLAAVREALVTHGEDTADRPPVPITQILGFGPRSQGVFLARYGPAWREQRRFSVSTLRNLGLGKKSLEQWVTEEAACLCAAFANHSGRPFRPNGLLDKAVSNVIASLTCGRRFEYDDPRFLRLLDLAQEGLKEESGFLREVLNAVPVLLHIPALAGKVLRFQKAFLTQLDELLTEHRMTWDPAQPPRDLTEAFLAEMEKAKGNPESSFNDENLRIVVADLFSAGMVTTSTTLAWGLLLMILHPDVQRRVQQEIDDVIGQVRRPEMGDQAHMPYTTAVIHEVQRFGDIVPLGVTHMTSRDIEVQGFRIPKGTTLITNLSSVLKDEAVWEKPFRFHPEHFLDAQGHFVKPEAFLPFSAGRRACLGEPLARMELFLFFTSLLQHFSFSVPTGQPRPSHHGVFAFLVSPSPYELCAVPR
Chain of Glutathione-S-transferase (Q26513 whole entry): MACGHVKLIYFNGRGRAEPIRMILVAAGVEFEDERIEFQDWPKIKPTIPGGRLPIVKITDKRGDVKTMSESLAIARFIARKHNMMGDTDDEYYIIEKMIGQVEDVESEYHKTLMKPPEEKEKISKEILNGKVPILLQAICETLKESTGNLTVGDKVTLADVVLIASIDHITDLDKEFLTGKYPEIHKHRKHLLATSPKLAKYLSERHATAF
Chain of Cytochrome P450 2C19 (P33261 whole entry): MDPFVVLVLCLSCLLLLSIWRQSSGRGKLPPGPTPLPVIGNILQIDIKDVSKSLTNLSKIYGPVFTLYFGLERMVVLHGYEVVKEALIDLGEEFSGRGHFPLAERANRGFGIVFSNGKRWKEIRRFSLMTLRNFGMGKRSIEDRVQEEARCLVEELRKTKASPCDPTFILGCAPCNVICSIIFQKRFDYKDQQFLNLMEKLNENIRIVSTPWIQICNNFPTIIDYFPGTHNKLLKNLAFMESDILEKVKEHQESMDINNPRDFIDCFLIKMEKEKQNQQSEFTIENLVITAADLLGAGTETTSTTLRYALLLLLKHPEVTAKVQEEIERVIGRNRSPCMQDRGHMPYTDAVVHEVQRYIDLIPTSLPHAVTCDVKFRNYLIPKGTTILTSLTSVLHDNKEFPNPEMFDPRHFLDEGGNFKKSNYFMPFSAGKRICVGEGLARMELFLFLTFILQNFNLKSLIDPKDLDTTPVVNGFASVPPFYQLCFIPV
Chain of Protein Tat (P04608 whole entry): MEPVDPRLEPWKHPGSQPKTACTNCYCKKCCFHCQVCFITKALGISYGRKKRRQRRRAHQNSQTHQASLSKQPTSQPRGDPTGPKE
Chain of Paired box protein Pax-8 (Q06710 whole entry): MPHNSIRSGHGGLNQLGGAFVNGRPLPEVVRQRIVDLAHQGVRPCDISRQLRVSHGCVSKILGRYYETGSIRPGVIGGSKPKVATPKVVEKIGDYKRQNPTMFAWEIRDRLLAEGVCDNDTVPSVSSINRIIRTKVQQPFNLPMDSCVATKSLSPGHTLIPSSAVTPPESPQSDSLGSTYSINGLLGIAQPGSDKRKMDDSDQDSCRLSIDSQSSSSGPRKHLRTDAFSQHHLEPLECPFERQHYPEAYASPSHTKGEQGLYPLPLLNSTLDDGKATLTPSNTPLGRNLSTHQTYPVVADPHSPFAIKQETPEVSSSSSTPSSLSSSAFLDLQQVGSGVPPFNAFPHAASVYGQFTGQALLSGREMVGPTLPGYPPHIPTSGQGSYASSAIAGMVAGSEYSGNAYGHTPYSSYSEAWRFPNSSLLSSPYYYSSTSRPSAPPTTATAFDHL
Chain of Cytochrome P450 2C9 (P11712 whole entry): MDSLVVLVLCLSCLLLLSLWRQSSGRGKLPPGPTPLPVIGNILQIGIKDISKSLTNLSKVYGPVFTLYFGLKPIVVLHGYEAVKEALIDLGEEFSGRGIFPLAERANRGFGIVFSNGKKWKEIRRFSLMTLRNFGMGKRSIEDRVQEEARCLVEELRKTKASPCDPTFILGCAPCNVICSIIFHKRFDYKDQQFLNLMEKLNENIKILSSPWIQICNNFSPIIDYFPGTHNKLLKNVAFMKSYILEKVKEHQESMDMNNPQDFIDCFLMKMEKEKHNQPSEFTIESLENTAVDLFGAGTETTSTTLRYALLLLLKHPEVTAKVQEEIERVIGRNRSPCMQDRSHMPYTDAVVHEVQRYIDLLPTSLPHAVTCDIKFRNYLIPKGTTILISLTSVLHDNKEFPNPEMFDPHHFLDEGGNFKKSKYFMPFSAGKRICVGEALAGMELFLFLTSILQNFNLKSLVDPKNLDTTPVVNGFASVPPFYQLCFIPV

## O=C(Nc1cccc2ccccc12)c1ccccc1
Cytochrome P450 2D6
  AC50: 0.00251 µM (inconclusive)
[1]
  IC50: > 123 µM (inactive)
Cytochrome P450 2C9
  AC50: inconclusive
Cytochrome P450 2C19
  AC50: 2.51 µM (inconclusive)
[2]
  IC50: > 123 µM (inactive)

## CCCCn1cnc2cc(NCc3ccncc3)ccc21
[3]
  IC50: > 100 µM (active)
[4]
  CC50: > 40 µM (active)
Protein Tat
  IC50: > 100 µM (active)

## Cc1ccnc(NC(=O)Nc2cccc(F)c2)c1
Cells [5]
  EC50: > 67.5 µM (inactive)
[6]
  EC50: > 67.5 µM (inactive)

## c1cc2c(cc1C1=NN=C(NC3CC3)SC1)OCCO2
[7]
  IC50: > 80 µM (inactive)
[8]
  AC50: 5.39 µM (active)
Paired box protein Pax-8
  AC50: 2.14 µM (active)
[9]
  AC50: 0.276 µM (active)
[10]
  AC50: 4.07 µM (active)
[11]
  AC50: 7.92 µM (active)
[12]
  AC50: 6.46 µM (active)
[13]
  AC50: 0.251 µM (active)

## Cc1noc(/C=C/c2ccco2)c1S(=O)(=O)N1CCC(C(=O)NCc2ccco2)CC1
[4]
  CC50: > 40 µM (active)

## Cc1cc(C)n(-c2nc(NCCCO)c3c4c(sc3n2)CCCC4)n1
[14]
  IC50: 17.9 µM (active)
[15]
  CC50: 38.6 µM (active)
[16]
  CC50: > 20 µM (active)
Cells [17]
  IC50: 5.54 µM (active)
Streptokinase A
  EC50: > 150 µM (not active)
[18]
  EC50: 25.9 µM (active)
INS1
  AC50: 5.71 µM (active)
Streptococcus
  EC50: > 150 µM (not active)

## CC(C)c1ccc(C=NNc2ccc([N+](=O)[O-])cn2)cc1
Cells [5]
  EC50: > 67.6 µM (inactive)
[6]
  EC50: > 67.6 µM (inactive)

From ChEMBL document CHEMBL1201862, “PubChem BioAssay data set” (2004)
